The target in this assay is T1, NPR-A signaling in HeLa cells (Homo sapiens, UniProt P16066).
T1 construct: Cyclic GMP (cGMP) elevation in HeLa cells in response to Natriuretic Peptide stimulation; endogenous in cells; host or cells: HeLa cells
T1 sequence (P16066 33-1061): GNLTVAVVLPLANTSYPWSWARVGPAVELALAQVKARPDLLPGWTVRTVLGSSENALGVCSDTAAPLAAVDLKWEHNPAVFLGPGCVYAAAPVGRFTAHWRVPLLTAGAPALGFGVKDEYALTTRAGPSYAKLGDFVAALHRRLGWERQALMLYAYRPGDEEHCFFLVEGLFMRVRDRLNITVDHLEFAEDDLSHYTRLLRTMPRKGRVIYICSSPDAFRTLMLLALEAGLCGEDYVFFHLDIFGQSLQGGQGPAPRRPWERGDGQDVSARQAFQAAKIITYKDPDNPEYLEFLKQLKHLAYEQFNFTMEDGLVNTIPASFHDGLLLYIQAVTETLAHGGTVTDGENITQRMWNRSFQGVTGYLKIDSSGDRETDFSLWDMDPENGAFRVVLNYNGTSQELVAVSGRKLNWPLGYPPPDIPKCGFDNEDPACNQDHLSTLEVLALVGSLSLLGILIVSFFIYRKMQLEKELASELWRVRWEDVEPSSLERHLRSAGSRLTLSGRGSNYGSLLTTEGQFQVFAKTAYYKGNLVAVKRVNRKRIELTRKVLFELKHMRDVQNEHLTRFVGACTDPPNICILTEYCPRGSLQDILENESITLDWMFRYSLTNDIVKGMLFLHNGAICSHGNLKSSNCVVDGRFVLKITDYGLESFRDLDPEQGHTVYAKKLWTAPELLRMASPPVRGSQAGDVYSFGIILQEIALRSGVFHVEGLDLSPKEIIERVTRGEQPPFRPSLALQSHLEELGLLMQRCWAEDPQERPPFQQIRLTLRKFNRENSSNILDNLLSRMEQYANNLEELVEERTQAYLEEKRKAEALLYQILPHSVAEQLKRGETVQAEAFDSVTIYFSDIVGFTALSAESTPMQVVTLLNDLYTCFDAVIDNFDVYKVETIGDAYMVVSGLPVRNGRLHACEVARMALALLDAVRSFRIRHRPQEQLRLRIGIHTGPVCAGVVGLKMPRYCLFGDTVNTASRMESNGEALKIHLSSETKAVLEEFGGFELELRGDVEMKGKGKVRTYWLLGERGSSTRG
Description: cGMP AlphaScreen assay in HeLa cells (Examples 14, 15). The conditions noted are these: 30 minutes at 37° C. The assay is classed as cell-based. As to the method: HeLa cells were maintained in RPMI cell culture medium (Gihco Invitrogen, Mt Waverley, Australia) supplemented with 10% Foetal Bovine Serum (Cambrex Bio Science, Rockland, USA). Upon reaching confluence, cells were sub-cultured such that they would be 70-90% confluent at time of assay.
Cyclic GMP (cGMP) elevation in HeLa cells in response to Natriuretic Peptide stimulation was performed using a cGMP AlphaScreen kit (PerkinElmer, Boston, USA), as follows for normal experiments: Cells were detached, pelleted to remove growth medium, and resuspended in Stimulation Buffer (Hank's Balanced Salt Solution, 0.1% Bovine Serum Albumin [BSA] (Sigma-Aldrich, Castle Hill, Australia), 1 mM 3-Isobutyl-1-methylxanthine [IBMX] (Sigma-Aldrich, Castle Hill, Australia)) and diluted to 6×10^6 cells per mL (30 000 cells per 5 μL). 5 μL of cells were added to wells of white 384-well OptiPlates (PerkinElmer, Boston, USA), and stimulated with increasing concentrations of peptide for 30 minutes at 37° C. Cells were then lysed with 10 μL Lysis buffer (dH2O, 0.3% Tween-20 (Sigma-Aldrich, Castle Hill, Australia), 5 mM HEPES (JRH Biosciences, Kansas, USA) and 0.1% BSA) and 5 μL acceptor bead mix (10 μL per mL acceptor beads and 1/3000 anti-cGMP antibody (BioVision, Mountain View, USA) in lysis buffer) added per well in the dark. Plates were incubated in the dark at room temperature for 30 minutes, then 5 μL donor bead mix (10 μL per ML donor beads and 0.3 nM biotinylated cGMP in lysis buffer) was added per well in the dark and the plate incubated overnight at room temperature. Signal was read using an EnVision plate reader (PerkinElmer, Boston, USA) and data analysed using Prism software. The cGMP standard curve was performed as per manufacturer's instructions.
To examine whether TNPc and synthetic analogs produced in the inventors' laboratory could stimulate NPR-A signaling, cGMP elevations in HeLa cells in response to these peptides were measured, as described above.

Where [1] appears, read: −Log10EC50 (pEC50) ± Standard Error, cGMP accumulation in HeLa cells.

Positions of bridges follow the written chain, without caps; N, C: chain ends. Residues, ends and D or L forms follow the SMILES beside them.

In turn, `CC[C@H](C)[C@@H]1NC(=O)[C@H](CCCCN)NC(=O)[C@H](Cc2c[nH]cn2)NC(=O)CNC(=O)[C@H](Cc2ccccc2)NC(=O)[C@@H](NC(=O)[C@@H]2CCCN2C(=O)[C@H](CC(=O)O)NC(=O)[C@H](Cc2ccc(O)cc2)NC(=O)[C@H](CCCCN)NC(=O)[C@@H](NC(=O)[C@@H](N)CCC(=O)O)C(C)C)CSSC[C@@H](C(=O)N2CCC[C@H]2C(=O)N[C@@H](CO)C(=O)N[C@@H](CC(C)C)C(=O)N[C@@H](CCCNC(=N)N)C(=O)N[C@@H](CC(=O)O)C(=O)N2CCC[C@H]2C(=O)N[C@@H](CCCNC(=N)N)C(=O)N2CCC[C@H]2C(=O)N[C@@H](CC(N)=O)C(=O)N[C@@H](C)C(=O)N2CCC[C@H]2C(=O)N[C@@H](CO)C(=O)N[C@H](C(=O)N[C@@H](CO)C(=O)N[C@@H](C)C(=O)O)[C@@H](C)O)NC(=O)CNC(=O)[C@H](CC(C)C)NC(=O)[C@H](CC(N)=O)NC(=O)[C@H](CO)NC(=O)[C@H](C(C)C)NC(=O)[C@H](Cc2c[nH]cn2)NC(=O)[C@H](CC(N)=O)NC(=O)[C@H]([C@@H](C)CC)NC(=O)[C@H](CCCNC(=N)N)NC(=O)[C@H](CC(=O)O)NC1=O` [DNP, reference compound] (H-EVKYDPCFGHKIDRINHVSNLGCPSLRDPRPNAPSTSA-OH; disulfide 7-23; N-terminus and C-terminus assumed) gave a concentration giving a half-maximal response (EC50) (EC50, cGMP accumulation in HeLa cells) of 0.392 nM and an EC50 under setting [1] of 0.382 nM.

Under setting [1], `CC[C@H](C)[C@H](NC(=O)[C@H](CCCCN)NC(=O)[C@H](CO)NC(=O)[C@H](CC(=O)O)NC(=O)[C@@H](N)CO)C(=O)NCC(=O)N[C@@H](CC(N)=O)C(=O)NCC(=O)N[C@H]1CSSC[C@@H](C(=O)N[C@@H](CC(N)=O)C(=O)N[C@@H](CCCNC(=N)N)C(=O)N[C@H](C(=O)N[C@@H](CCSC)C(=O)N[C@@H](CCC(N)=O)C(=O)N[C@@H](CC(N)=O)C(=O)N2CCC[C@H]2C(=O)N2CCC[C@H]2C(=O)N[C@@H](CCCCN)C(=O)N[C@@H](CCCCN)C(=O)N[C@@H](Cc2ccccc2)C(=O)N[C@@H](CO)C(=O)NCC(=O)N[C@@H](CCC(=O)O)C(=O)O)[C@@H](C)CC)NC(=O)CNC(=O)[C@H](CC(C)C)NC(=O)CNC(=O)[C@H](CO)NC(=O)[C@H](C(C)C)NC(=O)[C@H](CO)NC(=O)CNC(=O)[C@H]([C@@H](C)CC)NC(=O)[C@H](CCCNC(=N)N)NC(=O)[C@H](CC(=O)O)NC(=O)[C@H](CC(C)C)NC(=O)[C@@H]2CCCN2C(=O)[C@H](Cc2ccccc2)NC(=O)CNC(=O)[C@H](Cc2ccccc2)NC1=O` [TNPc] (H-SDSKIGNGCFGFPLDRIGSVSGLGCNRIMQNPPKKFSGE-OH; disulfide 9-25) showed a concentration for a half-maximal effect (EC50) of 124000 nM.
